Structures can show the parent of a compound that is named as a salt.
Molecular target: T1, IRAK-M (Homo sapiens, UniProt Q9Y616)
T1 sequence (Q9Y616 1-596): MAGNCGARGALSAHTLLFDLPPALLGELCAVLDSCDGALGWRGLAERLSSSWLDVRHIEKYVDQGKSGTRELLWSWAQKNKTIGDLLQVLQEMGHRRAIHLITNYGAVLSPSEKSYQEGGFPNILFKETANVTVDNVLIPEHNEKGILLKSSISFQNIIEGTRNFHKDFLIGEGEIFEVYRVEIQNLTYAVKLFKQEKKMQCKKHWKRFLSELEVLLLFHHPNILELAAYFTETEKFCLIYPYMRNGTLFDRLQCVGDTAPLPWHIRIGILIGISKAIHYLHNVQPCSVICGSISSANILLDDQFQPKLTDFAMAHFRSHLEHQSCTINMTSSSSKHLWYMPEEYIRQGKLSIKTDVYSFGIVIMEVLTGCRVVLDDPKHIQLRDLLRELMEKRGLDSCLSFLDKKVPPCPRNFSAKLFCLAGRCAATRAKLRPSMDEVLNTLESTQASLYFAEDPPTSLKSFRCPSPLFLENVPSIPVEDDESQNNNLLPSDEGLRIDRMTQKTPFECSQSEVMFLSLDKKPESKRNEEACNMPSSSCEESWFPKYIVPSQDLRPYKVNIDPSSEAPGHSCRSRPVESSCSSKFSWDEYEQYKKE
Experiment: IRAK-M binding inhibitory activity (KINOMEscan active site-dependent competitive assay)
Parameters: purchased Eurofins Discover X
Conditions: concentration of the test compound 1 μM; first symbol of cell; read-out: IRAK-M binding inhibition activity % Ctrl
Experimental: IRAK-M binding inhibitory activity was evaluated using active site-dependent competitive assay KINOMEscan® provided by Eurofins Discover X (Goldstein, D. M. et al. High-throughput kinase profiling as a platform for drug discovery. Nat. Rev. Drug Discovery. 7, 391-397 (2008)). IRAK-M binding inhibitory activity of the test compound was evaluated. […] The “% Ctrl” is calculated by the following formula.
(test compound signal−positive control compound signal)/(negative control compound signal−positive control compound signal)×100
Negative control compound=DMSO (100 Ctrl)
Positive control compound=control compound (0%×Ctrl)

| Structure (SMILES) | remaining binding at 1 µM [%] |
| --- | --- |
| C=CCOc1cc(C(C)N2CCC(Oc3ccnc4cc(C)sc34)CC2)on1 (racemic) [Ref. example 7, 3-(allyloxy)-5-(1-(4-((2-methylthieno[3,2-b]pyridin-7-yl)oxy)piperidin-1-yl)ethyl)isoxazole (racemate)] | < 25 |
| Cc1ncsc1-c1ccc(CNC(=O)[C@@H]2C[C@@H](O)CN2C(=O)[C@H](C(C)C)N2Cc3ccccc3C2=O)c(OCCOCCOCCOc2cc(CN3CCC(Oc4ccnc5ccsc45)CC3)on2)c1 [Example 62, (2S,4R)-4-hydroxy-1-((S)-3-methyl-2-(1-oxoisoindolin-2-yl)butanoyl)-N-(4-(4-methylthiazol-5-yl)-2-(2-(2-(2-((5-((4-(thieno[3,2-b]pyridin-7-yloxy)piperidin-1-yl)methyl)isoxazol-3-yl)oxy)ethoxy)ethoxy)ethoxy)benzyl)pyrrolidine-2-carboxamide] | 50 to 75 |
| Cc1ncsc1-c1ccc(CNC(=O)[C@@H]2C[C@@H](O)CN2C(=O)[C@H](C(C)C)N2Cc3ccccc3C2=O)c(OCCOCCOc2cc(CN3CCC(Oc4ccnc5ccsc45)CC3)on2)c1 [Example 63, (2S,4R)-4-hydroxy-1-((S)-3-methyl-2-(1-oxoisoindolin-2-yl)butanoyl)-N-(4-(4-methylthiazol-5-yl)-2-(2-(2-((5-((4-(thieno[3,2-b]pyridin-7-yloxy)piperidin-1-yl)methyl)isoxazol-3-yl)oxy)ethoxy)ethoxy)benzyl)pyrrolidine-2-carboxamide] | < 25 |
| Cc1ncsc1-c1ccc(CNC(=O)[C@@H]2C[C@@H](O)CN2C(=O)[C@H](C(C)C)N2Cc3ccccc3C2=O)c(OCCOCCOCCOCCOc2cc(CN3CCC(Oc4ccnc5ccsc45)CC3)on2)c1 [Example 64, (2S,4R)-4-hydroxy-1-((S)-3-methyl-2-(1-oxoisoindolin-2-yl)butanoyl)-N-(4-(4-methylthiazol-5-yl)-2-(2-(2-(2-(2-((5-((4-(thieno[3,2-b]pyridin-7-yloxy)piperidin-1-yl)methyl)isoxazol-3-yl)oxy)ethoxy)ethoxy)ethoxy)ethoxy)benzyl)pyrrolidine-2-carboxamide] | ≥ 75 |
| Cc1ccc(NS(=O)(=O)c2ccc(CNC(=O)COCCOCCOc3cc(CN4CCC(Oc5ccnc6ccsc56)CC4)on3)cc2)c2[nH]cc(C#N)c12 [Example 68, N-(4-(N-(3-cyano-4-methyl-1H-indol-7-yl)sulfamoyl)benzyl)-2-(2-(2-((5-((4-(thieno[3,2-b]pyridin-7-yloxy)piperidin-1-yl)methyl)isoxazol-3-yl)oxy)ethoxy)ethoxy)acetamide] | 25 to 50 |
| Cc1ccc(NS(=O)(=O)c2ccc(CNC(=O)COCCOCCOCCOc3cc(CN4CCC(Oc5ccnc6ccsc56)CC4)on3)cc2)c2[nH]cc(C#N)c12 [Example 69, N-(4-(N-(3-cyano-4-methyl-1H-indol-7-yl)sulfamoyl)benzyl)-2-(2-(2-(2-((5-((4-(thieno[3,2-b]pyridin-7-yloxy)piperidin-1-yl)methyl)isoxazol-3-yl)oxy)ethoxy)ethoxy)ethoxy)acetamide] | 25 to 50 |
| Cc1ccc(NS(=O)(=O)c2ccc(CNC(=O)COCCOc3cc(CN4CCC(Oc5ccnc6ccsc56)CC4)on3)cc2)c2[nH]cc(C#N)c12 [Example 70, N-(4-(N-(3-cyano-4-methyl-1H-indol-7-yl)sulfamoyl)benzyl)-2-(2-((5-((4-(thieno[3,2-b]pyridin-7-yloxy)piperidin-1-yl)methyl)isoxazol-3-yl)oxy)ethoxy)acetamide] | < 25 |
| Oc1cc(CN2CCC(Oc3ccnc4ccsc34)CC2)on1 [Ref. example 4, 5-((4-(thieno[3,2-b]pyridin-7-yloxy)piperidin-1-yl)methyl)isoxazol-3-ol] | 50 to 75 |
| C=CCOc1cc(C(C)N2CCC(Oc3ccnc4cc(C)sc34)CC2)on1 (stereo not drawn) [Ref. example 8, 3-(allyloxy)-5-(1-(4-((2-methylthieno[3,2-b]pyridin-7-yl)oxy)piperidin-1-yl)ethyl)isoxazole (enantiomer)] | < 25 |
| c1cc(OC2CCN(Cc3cc(OC[C@@H]4CCCN4)no3)CC2)c2sccc2n1 [Ref. example 10, (S)-3-(Pyrrolidin-2-ylmethoxy)-5-((4-(thieno[3,2-b]pyridin-7-yloxy)piperidin-1-yl)methyl)isoxazole trihydrochloride] | < 25 |
| NC(=O)c1ccc(Nc2ncnc3ccsc23)c(OC2CCOC2)c1 (stereo not drawn) [Ref. example 11, 3-((tetrahydrofuran-3-yl)oxy)-4-(thieno[3,2-d]pyrimidin-4-ylamino)benzamide] | 50 to 75 |
| c1ccc(Nc2ncnc3cc(-c4ccccc4)sc23)cc1 [Ref. example 12, N,6-diphenylthieno[3,2-d]pyrimidin-4-amine] | ≥ 75 |
| COc1ccccc1Nc1ncnc2cc(-c3ccccc3)sc12 [Ref. example 13, N-(2-methoxyphenyl)-6-phenylthieno[3,2-d]pyrimidin-4-amine] | ≥ 75 |
| c1ccc(-c2cc3ncnc(NCC4CC4)c3s2)cc1 [Ref. example 14, N-(cyclopropylmethyl)-6-phenylthieno[3,2-d]pyrimidin-4-amine] | 25 to 50 |
| c1ccc(-c2cc3ncnc(Nc4ccccn4)c3s2)cc1 [Ref. example 15, 6-phenyl-N-(pyridin-2-yl)thieno[3,2-d]pyrimidin-4-amine] | 25 to 50 |
| c1ccc(-c2cc3ncnc(NCc4cccnc4)c3s2)cc1 [Ref. example 16, 6-phenyl-N-(pyridin-3-ylmethyl)thieno[3,2-d]pyrimidin-4-amine] | 50 to 75 |
| c1ccc(CCNc2ncnc3cc(-c4ccccc4)sc23)cc1 [Ref. example 17, N-phenethyl-6-phenylthieno[3,2-d]pyrimidin-4-amine] | ≥ 75 |
| NC(=O)c1ccc(Nc2ncnc3ccsc23)cc1 [Ref. example 18, 4-(thieno[3,2-d]pyrimidin-4-ylamino)benzamide] | 50 to 75 |
| c1ccc(OC2CCOC2)c(Nc2ncnc3ccsc23)c1 (stereo not drawn) [Ref. example 19, N-(2-((tetrahydrofuran-3-yl)oxy)phenyl)thieno[3,2-d]pyrimidin-4-amine] | 50 to 75 |
| NC(=O)c1cccc(Nc2ncnc3ccsc23)c1 [Ref. example 20, 3-(thieno[3,2-d]pyrimidin-4-ylamino)benzamide] | 50 to 75 |

Same assay, conditions: second symbol of cell; read-out: IRAK-M binding inhibition IC50 value

| Structure (SMILES) | IC50 [nM] |
| --- | --- |
| C=CCOc1cc(C(C)N2CCC(Oc3ccnc4ccsc34)CC2)on1 (single isomer, unassigned) [Ref. example 5, 3-(allyloxy)-5-(1-(4-(thieno[3,2-b]pyridin-7-yloxy)piperidin-1-yl)ethyl)isoxazole (enantiomer)] | 30 to 100 |
| C=CCOc1cc(C(C)N2CCC(Oc3ccnc4ccsc34)CC2)on1 (single isomer, unassigned) [Ref. example 6, 3-(allyloxy)-5-(1-(4-(thieno[3,2-b]pyridin-7-yloxy)piperidin-1-yl)ethyl)isoxazole (enantiomer)] | 100 to 300 |
| Cc1ncsc1-c1ccc(CNC(=O)[C@@H]2C[C@@H](O)CN2C(=O)[C@@H](NC(=O)COCCOCCOCCOc2cc(CN3CCC(Oc4ccnc5ccsc45)CC3)on2)C(C)(C)C)cc1 [Example 61, (2S,4R)-1-((S)-2-(tert-butyl)-4-oxo-14-((5-((4-(thieno[3,2-b]pyridin-7-yloxy)piperidin-1-yl)methyl)isoxazol-3-yl)oxy)-6,9,12-trioxa-3-azatetradecanoyl)-4-hydroxy-N-(4-(4-methylthiazol-5-yl)benzyl)pyrrolidine-2-carboxamide] | 300 to 1000 |
| O=C1CCC(N2C(=O)c3cccc(OCCOCCOCCOc4cc(CN5CCC(Oc6ccnc7ccsc67)CC5)on4)c3C2=O)C(=O)N1 (stereo not drawn) [Example 65, 2-(2,6-dioxopiperidin-3-yl)-4-(2-(2-(2-((5-((4-(thieno[3,2-b]pyridin-7-yloxy)piperidin-1-yl)methyl)isoxazol-3-yl)oxy)ethoxy)ethoxy)ethoxy)isoindoline-1,3-dione] | 300 to 1000 |
| O=C1CCC(N2C(=O)c3cccc(OCCOCCOc4cc(CN5CCC(Oc6ccnc7ccsc67)CC5)on4)c3C2=O)C(=O)N1 (stereo not drawn) [Example 66, 2-(2,6-dioxopiperidin-3-yl)-4-(2-(2-((5-((4-(thieno[3,2-b]pyridin-7-yloxy)piperidin-1-yl)methyl)isoxazol-3-yl)oxy)ethoxy)ethoxy)isoindoline-1,3-dione] | 100 to 300 |
| O=C1CCC(N2C(=O)c3cccc(OCCOCCOCCOCCOc4cc(CN5CCC(Oc6ccnc7ccsc67)CC5)on4)c3C2=O)C(=O)N1 (stereo not drawn) [Example 67, 2-(2,6-dioxopiperidin-3-yl)-4-(2-(2-(2-(2-((5-((4-(thieno[3,2-b]pyridin-7-yloxy)piperidin-1-yl)methyl)isoxazol-3-yl)oxy)ethoxy)ethoxy)ethoxy)ethoxy)isoindoline-1,3-dione] | 100 to 300 |
| C=CCOc1cc(CN2CCC(Oc3ccnc4ccsc34)CC2)on1 [Ref. example 3] | 100 to 300 |

Source: patent US20220402935A1, “HETEROCYCLIC COMPOUND” (FIMECS, INC., priority 2019, published 2022)
